Measurements taken from BindingDB's records for PubMed 33650861 (Sichuan University, 2021).
pIC50: −log10 of the molar value.

Test: Inhibition of BET (unknown origin)

## Cc1sc2c(c1C)C(c1ccc(Cl)cc1)=N[C@@H](CC(=O)OC(C)(C)C)c1nnc(C)n1-2
  pIC50: 6.30
